Like-named read-outs stand apart in the source and are kept apart here.
Tests used:
[1] = system: A375 (a human melanoma) cell line; assay: MTT cytotoxicity assay, A375; type: cell-based; details: read-out: Cytotoxicity (IC50 ± SEM) against A375
Procedure: (§1) In this study, A375 (a human melanoma), HT29 (a human colon adenocarcinoma), and HFF (a human foreskin fibroblast) cell lines were provided from the Pasteur Institute (Iran). […] 10 mM stock solutions of compounds were prepared in DMSO and diluted in a fresh medium for use. The final concentration of DMSO never exceeded 0.1% (v/v). […] Then the medium was replaced with the respective medium containing ligands or Tl(III) complexes at different concentrations and incubated for 48 h. 10 μL of MTT was added and the medium was removed after 4 h of incubation. Finally, the violet crystal was solubilized in 100 μL DMSO and the absorbance was measured at 570 nm. IC50 value was measured by the standard method. The evaluations were carried out in triplicate[21],[23].

[2] = MTT cytotoxicity assay, HFF; type: cell-based, human; details: human; for IC50: MTT, 48 h, read-out: Cytotoxicity (IC50 ± SEM) against HFF
Procedure: as §1

[3] = system: HT29 (a human colon adenocarcinoma) cell line; assay: MTT cytotoxicity assay, HT29; type: cell-based; details: read-out: Cytotoxicity (IC50 ± SEM) against HT29
Procedure: as §1

[4] = system: HFF (a human foreskin fibroblast) cell line; assay: MTT cytotoxicity assay, HFF; type: cell-based; details: MTT, 48 h; read-out: Cytotoxicity (IC50 ± SEM) against HFF
Procedure: as §1

SMILES | IC50 ([1]; Homo sapiens, A-375, MTT, 48 h) | IC50 [2] | IC50 ([3]; Homo sapiens, HT-29, MTT, 48 h) | also measured
Nc1nc2ccccc2[nH]1 [2-ab, 2-aminobenzimidazole] |  |  |  | IC50 ([1]; Homo sapiens, A-375, 48 h): > 500 µM; IC50 at 48 h [2]: > 500 µM; IC50 ([3]; Homo sapiens, HT-29, 48 h): > 500 µM
Nc1ccncc1 [4-apy, 4-aminopyridine] | 491.9 ± 1.56 µM | > 500 µM | > 500 µM | 
O=C1[O][Pt]2([NH][C@@H]3CCCC[C@H]3[NH]2)[O]C1=O [Oxaliplatin, reference compound] |  |  |  | IC50 ([1]; MTT, 48 h): 331 ± 2.69 µM; IC50 [4]: 429.2 ± 2.32 µM; IC50 ([3]; MTT, 48 h): 323.1 ± 2.87 µM
O=C(O)c1cc(O)cc(C(=O)O)n1 [hpydcH2, 4-hydroxy-pyridine-2,6-dicarboxylic acid] | > 500 µM | > 500 µM | > 500 µM | 

From publication PMC8333620, “Novel Tl(III) complexes containing pyridine-2,6-dicarboxylate derivatives with selective anticancer activity through inducing mitochondria-mediated apoptosis in A375 cells” (Scientific Reports, 2021)
